# According to publication PMC6962389, “Somatostatin receptor mediated targeting of acute myeloid leukemia by photodynamic metal complexes for light induced apoptosis” (Scientific Reports, 2020):
# pIC50: −log10 of the molar value. Like-named read-outs stand apart in the source and are kept apart here.
# Key:
# Assay type in all cases: cell-based, human
# HL60 cells = assay: Determination of the IC50 in HL60 cells (trypan blue exclusion, light/dark); details: 10–100 µM
# Description: Figure 1 Uptake and IC50 studies of RU complex: confocal images of OCI-AML3 cells incubated with RU-SST (50 μm) (A) and RU-Alkyne control (RU-Alk) (100μm) (B) for 4 hrs. The laser intensity was measured for alexaflour (430 nm). Uptake characteristics with values of the integrated intensity (a.u.) per cell (C). Bar graphs indicate the average integrated intensity per cell in both experimental arms. Cells analysed for RU-SST (n = 45) and RU-Alk (n = 44). Data are represented as mean ± SEM. (D) IC50 was calculated in HL60 AML cell lines. Percent cell survival was measured by trypan blue exclusion after 4 h incubation with RU-Alk (control), RU-SST (irradiated) compared to RU-SST in the absence of light (dark RU). Experiments performed for dark RU-SST (n = 6); RU-Alk (n = 3), for RU-SST (n = 3). Data are represented as mean ± SEM. […]
# phenylalanine as an internal standard (Int. std.) was added to remove large proteins and the solution was centrifuged at […] for 30 min at 0 °C. […] The amount of RU-SST in each sample was determined as a ratio of the integration of the mass chromatogram of RU-SST to the int. std. […]
# For this purpose, we chose a high SSTR2 expressing cell line, HL60 2 . […] The cell viability was quantified by trypan blue exclusion. IC50 values were calculated using R-statistical package. […]
# OCI-AML3 cells = assay: CFC assay (clonogenic growth in methylcellulose), OCI-AML3; details: unconjugated control, 4 h incubation, day 14
# Description: (§1) To evaluate the toxicity of the bioconjugate on clonogenic progenitor cells, AML cell lines as well primary human cells were incubated with the compound for 4 hours. Subsequently, cells were washed and cell counts were determined via trypan blue exclusion. Colony forming cell unit (CFC) assays were performed as described previously. In all cases cell numbers placed in methylcellulose were calculated according to the initial cell number at the start of the experiment, not taking into account any cell loss during the incubation time. 1000 cells (OCI-AML3 and HL60) and 500 cells (THP1) were plated per dish (methocult H4330). For primary patient samples, 10,000 cells were plated per dish in methylcellulose H4330 (Stem Cell Technologies, Vancouver, BC, Canada) and supplemented with cytokines. For the CD34^+ enriched CB cells, 300 cells were plated per dish in methocult H4434 (Stem Cell Technologies, Vancouver, BC, Canada). Each experiment was performed in duplicates and values mentioned are Mean ± SEM.
# We could detect a significant decrease in colony growth in the OCI AML3 cell line with a 92% reduction of colony growth when the cells were incubated with RU-SST and exposed to light compared to the cells treated with RU-SST and not exposed to light (Fig. 2A).
# Significance was calculated using the Mann-Whitney test (** < 0.01). […]
# [1] = tested on: primary AML patient samples (clonogenic progenitor cells); assay: CFC assay on primary AML patient samples; parameters: average reduction in CFC numbers, with exposure to light / % reduction of CFC: concentration or dose not given beside the values; details: for CFC/10^4 cells: 4 h incubation, day 14
# Description: Mononuclear cells were isolated from bone marrow (BM) or peripheral blood (PB) from patients with primary diagnosed AML, analyzed for their SSTR2 expression (n = 13) and cultured with the RU-SST bioconjugate to test the toxicity of the compound (n = 6). All patient samples were investigated by cytomorphological, cytogenetic and molecular analyses after written informed consent as described. Diagnosis was made according to the French-American-British criteria and the World Health Organization classification (Table 1)[11],[12]. The study was approved by the ethic committee of the University of Ulm. in accordance with the ethical principles of the declaration of Helsinki (http://www.wma.net/en/30publications/10policies/b3/index.html). Leukemic cells were thawed and kept in culture with culture conditions as mentioned previously.
# as §1
# CD34+ enriched CB cells = assay: CFC assay on CD34+ enriched cord blood cells; details: unconjugated RU-Alkyne; ±4.88% SEM; n = 6 CB samples
# Description: Cells from cord blood (CB) were enriched for CD34^+ using the human CD34 Micro Bead Kit ultrapure (Miltenyi Biotec, Auburn, CA, USA) according to the manufacturer instructions.
# To evaluate the toxicity of the bioconjugate on clonogenic progenitor cells, AML cell lines as well primary human cells were incubated with the compound for 4 hours. Subsequently, cells were washed and cell counts were determined via trypan blue exclusion. Colony forming cell unit (CFC) assays were performed as described previously. In all cases cell numbers placed in methylcellulose were calculated according to the initial cell number at the start of the experiment, not taking into account any cell loss during the incubation time. 1000 cells (OCI-AML3 and HL60) and 500 cells (THP1) were plated per dish (methocult H4330). […]
# To evaluate, whether the effect of the compound was selective for AML stem and progenitor cells, we analysed the toxicity of the compound for CD34^+ enriched CB cells (n = 6). […]
# Figure 3 Effect of RU-complexes on clonogenicity of normal CD34^+ cells: cells from […] CD34^+ enriched cord blood (CB) samples (n = 6) were tested for the effect of both RUSST and RU-Alkyne compounds. […] Percent reduction was determined based on the colony numbers generated from CB cells treated with RU-SST and exposed to light compared to dark RU-SST. […] Significance calculated by Mann-Whitney test ** < 0.01.
smiles,measurement,setting,value
C#Cc1ccnc(-c2ccccn2)c1.[Cl-].[Cl-].[Ru+2].c1ccc(-c2ccccn2)nc1.c1ccc(-c2ccccn2)nc1 [RU-Alkyne],pIC50,"HL60 cells; 4 h incubation in the dark, washed, 470 nm LED 6 min (6.9 ± 0.9 J cm-2), probit regression, n = 3, mean ± SEM, read-out: IC50 after light irradiation",< 4.00
same,pIC50,"HL60 cells; 4 h incubation, not exposed to light, IC50 not reached with up to 100 µM, dark RU-SST n = 6, read-out: IC50 in the dark",< 4.00
same,"colony growth, exposed or not exposed to light",OCI-AML3 cells,no comparable reduction in colony growth
same,% reduction of CFC,"[1]; AML#1, 6 min RU-Alk (light) vs dark RU-SST",22%
same,CFC/10^4 cells,"[1]; AML#1, 6 min RU-Alk (light)",78 CFC/10^4 cells
same,% reduction of CFC,"[1]; AML#1, Dark RU-Alk vs dark RU-SST",0%
same,CFC/10^4 cells,"[1]; AML#1, Dark RU-Alk",153 CFC/10^4 cells
same,% reduction of CFC,"[1]; AML#2, 6 min RU-Alk (light) vs dark RU-SST",17.7%
same,CFC/10^4 cells,"[1]; AML#2, 6 min RU-Alk (light)",208 CFC/10^4 cells
same,% reduction of CFC,"[1]; AML#2, Dark RU-Alk vs dark RU-SST",2.0%
same,CFC/10^4 cells,"[1]; AML#2, Dark RU-Alk",247 CFC/10^4 cells
same,% reduction of CFC,"[1]; AML#3, 6 min RU-Alk (light) vs dark RU-SST",0%
same,CFC/10^4 cells,"[1]; AML#3, 6 min RU-Alk (light)",211 CFC/10^4 cells
same,% reduction of CFC,"[1]; AML#3, Dark RU-Alk vs dark RU-SST",0%
same,CFC/10^4 cells,"[1]; AML#3, Dark RU-Alk",187 CFC/10^4 cells
same,% reduction of CFC,"[1]; AML#4, 6 min RU-Alk (light) vs dark RU-SST",48.9%
same,CFC/10^4 cells,"[1]; AML#4, 6 min RU-Alk (light)",24 CFC/10^4 cells
same,% reduction of CFC,"[1]; AML#4, Dark RU-Alk vs dark RU-SST",38.2%
same,CFC/10^4 cells,"[1]; AML#4, Dark RU-Alk",29 CFC/10^4 cells
same,% reduction of CFC,"[1]; AML#5, 6 min RU-Alk (light) vs dark RU-SST",41.5%
same,CFC/10^4 cells,"[1]; AML#5, 6 min RU-Alk (light)",69 CFC/10^4 cells
same,% reduction of CFC,"[1]; AML#5, Dark RU-Alk vs dark RU-SST",38.9%
same,CFC/10^4 cells,"[1]; AML#5, Dark RU-Alk",72 CFC/10^4 cells
same,% reduction of CFC,"[1]; AML#6, 6 min RU-Alk (light) vs dark RU-SST",58.7%
same,CFC/10^4 cells,"[1]; AML#6, 6 min RU-Alk (light)",29 CFC/10^4 cells
same,% reduction of CFC,"[1]; AML#6, Dark RU-Alk vs dark RU-SST",48.5%
same,CFC/10^4 cells,"[1]; AML#6, Dark RU-Alk",36 CFC/10^4 cells
same,"average reduction in CFC numbers, with exposure to light","[1]; RU-Alkyne with exposure to light, 6 primary AML samples, mean (SEM), not significant",31.4%
same,reduction in colony numbers compared to dark RU-SST,CD34+ enriched CB cells,18.59%
